Results taken from patent publication US4690920A, “Derivative of cephalosporanic acid and pharmaceutical composition comprising the same” (Kureha Kagaku Kogyo Kabushiki Kaisha, priority 1982, dated 1987).

How the values were obtained:
[1] = tested on: Escherichia coli; assay: Effect on the intestinal bacterial colonies: number of Escherichia coli in feces; assay type: in vivo, Escherichia coli (feces of female ICR mice); details: for Log10 value of the number of bacterial cells/g of feces, Escherichia coli: oral, 500 mg/kg/day for 2 days, feces one day after administration, before administration 7.0
Description: (§1) After collecting the feces of a group of mice, each of the compounds represented by the formula (I) was orally administered to each of the group for 2 continued days at a daily dose rate of 500 mg per kg body weight, and the feces were again collected one day after the administration. Each portion of the thus collected, two kinds of the feces was cultured at 25° C. or 37° C. in a variety of culture media for one to five days to see the state of growth of the following bacteria which are present habitually in the intestine of the mouse: Escherichia coli, Pseudomonas aeruginosa, a streptococcus bacterial species, a lactobacillis bacteria, Lactobacillus bifidus and a bacterioides bacteria.
(§2) Each of the compounds, respectively produced in Examples 1 to 6 was orally administered for two continued days at a daily dosage of 500 mg/kg body weight to each of five female ICR mice of a group after 6 weeks of birth.
(§3) Each of the two fecal specimens respectively collected before and after one day of the administration was diluted with 100 times by weight of an anaerobic diluent (a phosphoric buffer solution) and was ground in a mortar, and 0.1 ml of the ground material was smeared on each of the following culture media for the following bacteria and the thus inoculated culture media were incubated under the following conditions. Thereafter, the number of the following bacteria was determined on each culture medium.
DHL agar 37° C., for 1 day, […]

[2] = tested on: Pseudomonas aeruginosa; assay: Effect on the intestinal bacterial colonies: number of Pseudomonas aeruginosa in feces; assay type: in vivo, Pseudomonas aeruginosa (feces of female ICR mice); details: oral, 500 mg/kg/day for 2 days; feces one day after administration; before administration <3.0
Description: as §1, §2, §3
NAC agar 37° C., for 1 day, […]

[3] = tested on: A species of Streptococcus; assay: Effect on the intestinal bacterial colonies: number of a species of Streptococcus in feces; assay type: in vivo, Streptococcus (feces of female ICR mice); details: oral, 500 mg/kg/day for 2 days; feces one day after administration; before administration 6.4
Description: as §1, §2, §3
a species of TATAC agar 37° C., for 1 day, […]

[4] = tested on: A species of Lactobacillus; assay: Effect on the intestinal bacterial colonies: number of a species of Lactobacillus in feces; assay type: in vivo, Lactobacillus (feces of female ICR mice); details: for Log10 value of the number of bacterial cells/g of feces, a species of Lactobacillus: oral, 500 mg/kg/day for 2 days, feces one day after administration, before administration 9.0
Description: as §1, §2, §3
a species of LBS agar 37° C., for 5 days, […]

[5] = tested on: Lactobacillus bifidus; assay: Effect on the intestinal bacterial colonies: number of Lactobacillus bifidus in feces; assay type: in vivo, Lactobacillus bifidus (feces of female ICR mice); details: oral, 500 mg/kg/day for 2 days; feces one day after administration; before administration 8.0
Description: as §1, §2, §3
BS agar 37° C., for 5 days, […]

[6] = tested on: A species of Bacterioides; assay: Effect on the intestinal bacterial colonies: number of a species of Bacterioides in feces; assay type: in vivo, Bacteroides (feces of female ICR mice); details: oral, 500 mg/kg/day for 2 days; feces one day after administration; before administration 8.1
Description: as §1, §2, §3
a species of NBGT agar 37° C., for 5 days,7 -Bacteroides anaer

[7] = tested on: Escherichia coli IFO 12734; assay: Anti-bacterial activity, agar plate dilution method (MIC), Escherichia coli; assay type: cell-based; details: 18 to 24 hours, 37° C.; for Minimum concentration of inhibiting growth of Escherichia coli (MIC): Mueller-Hinton agar
Description: (§4) 3-1: The minimum growth-inhibiting concentration (MIC) of each of the compounds represented by the formula (I) was measured according to the standard procedures of Japan Society of Chemotherapy against each of the following bacterial species:
Escherichia coli, IFO 12734 and
(§5) Anti-bacterial activity of each of the compounds produced in Examples 1 to 6 was measured according to the standard procedures of Japan Society of Chemotherapy in agar plate dilution method as follows:
(§6) As a test bacterial species, Escherichia coli IFO 12734 and Staphylococcus aureus IAM 1011, and each strain was inoculated into Mueller-Hinton's culture medium for 18 to 48 hours at 37° C., and while using the thus cultured bacteria, each of the test bacterial liquid containing 10^6 cells in one ml was prepared.
(§7) Separately, after preparing each series of diluted aqueous solutions of each of the compounds produced in Examples 1 to 6, respectively, each of them was mixed in amount of 1/9 time by weight with the Mueller-Hinton's culture medium and each flat agar culture plate was prepared by using the thus formed mixture.

[8] = tested on: Staphylococcus aureus IAM 1011; assay: Anti-bacterial activity, agar plate dilution method (MIC), Staphylococcus aureus; assay type: cell-based; details: 18 to 24 hours, 37° C.; for Minimum concentration of inhibiting growth of Staphylococcus aureus (MIC): Mueller-Hinton agar
Description: as §4
Staphylococcus aureus, IAM 1011
as §5, §6, §7

[9] = tested on: Staphylococcus aureus IAM 1011; assay: Model test for verifying the activation in living body: growth-inhibition circle with/without rat liver S-9 mix; assay type: cell-based; details: 20 min at 37° C., then 18 hours at 37° C.; for Sign: diameter of growth-inhibiting circle as percentage of that due to compound of formula (II), with the addition of S-9 mix: with the addition of S-9 mix (rat liver homogenate)
Description: On each flat culture plate prepared by adding 10^8 cells/ml of a preliminarily cultured Staphylococcus aureus IAM 1011 into 50 times by weight of Mueller-Hinton's agar culture medium, a penicillin cup of 8 mm in diameter was placed, and into each cup 0.1 ml of each of the compounds represented by the formula (I) or 0.1 ml of a cultured product of each of the compounds represented by the formula (I) together with a rat liver homogenate (containing a metabolism-activating enzyme, referred to as S-9 mix) was introduced. The diameter of each growth-inhibition circle formed around the cup after incubating the flat culture plate with the cup for 18 hours at 37° C. was measured, and the thus obtained value was compared to the value obtained by the same procedures except for using the compound represented by the formula (II), the starting compound instead of each of the compounds represented by the formula (I).
As a metabolism-activating enzyme, a rat liver homogenate (S-9, manufactured by Oriental Yeast Co.) was used in the following composition (referred to as S-9 mix, hereinafter):
After mixing 0.1 ml of a solution of the compound to be tested with 0.9 ml of S-9 mix or 0.9 ml of 0.1M phosphoric acid buffer solution, the mixture was subjected to shaking culture for 20 min at 37° C. to prepare a test reaction solution for use in the following experiment.
Staphylococcus aureus IAM 1011 was inoculated to Mueller-Hinton's culture medium and the inoculum was cultured for 18 hours at 37° C. and after adjusting the number of the bacterial cells to 10^8 /ml of the culture medium, 50 times by weight of the Mueller-Hinton's agar culture medium were added to the cultured medium to prepare flat culture plates.
After placing a penicillin-cup of 8 mm in diameter on each of the thus prepared flat culture plates, 0.1 ml of the above-mentioned test reaction solution was introduced into the penicillin-cup, and after leaving the system for 2 hours at 4° C., the system was incubated for 18 hour at 37° C., and the diameter of the growth-inhibition circle around the cup on the culture plate was determined.
The thus obtained diameter of the growth-inhibiting circle due to each of the compounds produced respectively in Examples 1 to 6 was compared to that due to the compound repesente by the formula (II), substituted cephalosporanic acid by percentage, and the following signs were respectively given to the respective compounds as follows: […]

[10] = compared to that before administration

| Structure (SMILES) | Minimum concentration of inhibiting growth of Escherichia coli (MIC) [7] | Minimum concentration of inhibiting growth of Staphylococcus aureus (MIC) [8] | MIC ([7]; IFO12734, Mueller-Hinton agar, read-out: Minimum concentration of inhibiting growth of Escherichia coli (MIC)) | MIC ([8]; IAM1011, Mueller-Hinton agar, read-out: Minimum concentration of inhibiting growth of Staphylococcus aureus (MIC)) | Log10 value of the number of bacterial cells/g of feces, Escherichia coli [1] | Log10 value of the number of bacterial cells/g of feces, Pseudomonas aeruginosa [2] | Log10 value of the number of bacterial cells/g of feces, a species of Streptococcus [3] | Log10 value of the number of bacterial cells/g of feces, a species of Lactobacillus [4] | Log10 value of the number of bacterial cells/g of feces, Lactobacillus bifidus [5] | Log10 value of the number of bacterial cells/g of feces, a species of Bacterioides [6] | Sign: diameter of growth-inhibiting circle as percentage of that due to compound of formula (II), with the addition of S-9 mix [9] | Sign: diameter of growth-inhibiting circle as percentage of that due to compound of formula (II), without adding S-9 mix [9] | number of cells of Escherichia coli after administration (in words) [1, 10] | number of a certain species of Lactobacillus after administration (in words) [4, 10] |
| --- | --- | --- | --- | --- | --- | --- | --- | --- | --- | --- | --- | --- | --- | --- |
| COC1(NC(=O)CSCC#N)C(=O)N2C(C(=O)Nc3ccc(C(=O)O)cc3)=C(CSc3nnnn3C)CSC21 (stereo not drawn) [Example 1, N-(4-carboxyphenyl)-{7-beta-cyanomethylthioacetamido-7-alpha-methoxy-3-[(1-methyl-1H-tetrazol5-yl)thio]methyl-3-cepheme-4-carboxylic}amide] | ≥ 100 microgram/ml | ≥ 100 microgram/ml | – | – | 7.2 Log10 cells/g of feces | < 3.0 Log10 cells/g of feces | 6.0 Log10 cells/g of feces | 8.9 Log10 cells/g of feces | 8.0 Log10 cells/g of feces | 8.1 Log10 cells/g of feces | + (1 to 33) | - (0) | – | – |
| COC(=O)c1ccc(NC(=O)C2=C(CSc3nnnn3C)CSC3N2C(=O)C3(NC(=O)CSCC#N)OC)cc1 (stereo not drawn) [Example 2, N-(4-carbomethoxyphenyl)-{7-beta-cyanomethylthioacetamido-7-alpha-methoxy-3-[(1-methyl-1H-tetrazol-5-yl)thio]methyl-3-cepheme-4-carboxylic}amide] | ≥ 100 microgram/ml | ≥ 100 microgram/ml | – | – | 6.6 Log10 cells/g of feces | < 3.0 Log10 cells/g of feces | 6.2 Log10 cells/g of feces | 9.1 Log10 cells/g of feces | 8.0 Log10 cells/g of feces | 8.0 Log10 cells/g of feces | + (1 to 33) | - (0) | – | – |
| CO[C@@]1(NC(=O)CSCC#N)C(=O)N2C(C(=O)O)=C(CSc3nnnn3C)CS[C@@H]21 [CEFMETAZOLE, reference compound] | – | – | – | – | < 3.0 Log10 cells/g of feces | 7.0 Log10 cells/g of feces | < 3.0 Log10 cells/g of feces | 4.0 Log10 cells/g of feces | 3.8 Log10 cells/g of feces | 4.6 Log10 cells/g of feces | – | – | showed an increase | showed a reduction |

Further lines, with some results ahead:

| Minimum concentration of inhibiting growth of Escherichia coli (MIC) [7] | Minimum concentration of inhibiting growth of Staphylococcus aureus (MIC) [8] | MIC ([7]; IFO12734, Mueller-Hinton agar, read-out: Minimum concentration of inhibiting growth of Escherichia coli (MIC)) | MIC ([8]; IAM1011, Mueller-Hinton agar, read-out: Minimum concentration of inhibiting growth of Staphylococcus aureus (MIC)) | Structure (SMILES) | Log10 value of the number of bacterial cells/g of feces, Escherichia coli [1] | Log10 value of the number of bacterial cells/g of feces, Pseudomonas aeruginosa [2] | Log10 value of the number of bacterial cells/g of feces, a species of Streptococcus [3] | Log10 value of the number of bacterial cells/g of feces, a species of Lactobacillus [4] | Log10 value of the number of bacterial cells/g of feces, Lactobacillus bifidus [5] | Log10 value of the number of bacterial cells/g of feces, a species of Bacterioides [6] | Sign: diameter of growth-inhibiting circle as percentage of that due to compound of formula (II), with the addition of S-9 mix [9] | Sign: diameter of growth-inhibiting circle as percentage of that due to compound of formula (II), without adding S-9 mix [9] | number of cells of Escherichia coli after administration (in words) [1, 10] | number of a certain species of Lactobacillus after administration (in words) [4, 10] |
| --- | --- | --- | --- | --- | --- | --- | --- | --- | --- | --- | --- | --- | --- | --- |
| – | – | ≥ 100 µg/mL | ≥ 100 µg/mL | COC(=O)Cc1ccc(NC(=O)C2=C(CSc3nnnn3C)CS[C@H]3N2C(=O)[C@]3(NC(=O)CSCC#N)OC)cc1 [Example 3, N-(4-carbomethoxymethylphenyl)-{7-betacyanomethylthioacetamido-7-alpha-methoxy-3-[(1-methyl-1H-tetrazol-5-yl)thio]methyl-3-cepheme-4-carboxylic}amide] | 7.1 Log10 cells/g of feces | < 3.0 Log10 cells/g of feces | 6.0 Log10 cells/g of feces | 9.1 Log10 cells/g of feces | 7.9 Log10 cells/g of feces | 8.0 Log10 cells/g of feces | ± (0 to 1) | - (0) | – | – |
| ≥ 100 microgram/ml | ≥ 100 microgram/ml | – | – | COC1(NC(=O)CSCC#N)C(=O)N2C(C(=O)Nc3ccc(C)cc3)=C(CSc3nnnn3C)CSC21 (stereo not drawn) [Example 6, N-(4-methylphenyl)-{7-beta-cyanomethylthioacetamido-7-alpha-methoxy-3-[(1-methyl-1H-tetrazol-5-yl)thio]methyl-3-cepheme-4-carboxylic}amide] | 6.9 Log10 cells/g of feces | < 3.0 Log10 cells/g of feces | 6.3 Log10 cells/g of feces | 9.2 Log10 cells/g of feces | 8.0 Log10 cells/g of feces | 8.0 Log10 cells/g of feces | + (1 to 33) | - (0) | – | – |
